Where two headings read alike, the source gives them in different places.
Assays:
Y1R = details: cited from earlier work
[1] = test system: Gi1 heterotrimer with NPY-bound Y1R; experiment: GTP turnover assay; format: biochemical, human
Procedure: GTP turnover assay was performed using GTPase-Glo assay kit (Promega)[22]. […] NPY-bound Y1R (4 μM) was mixed with 1 μM Gi1 heterotrimer (containing Gαi produced from E. coli or Sf9 cells) in an assay buffer consisting of 20 mM HEPES pH 8.0, 150 mM NaCl, 0.03% DDM, 0.003% CHS, 100 μM TCEP, 5 μM GDP, and 2.5 μM GTP. After incubation for 3 h, reconstituted GTPase-Glo reagent was added to the sample and incubated for 30 min at room temperature. Then, detection reagent was mixed and incubated for 10 min at room temperature. Luminescence was measured using a FlexStation 3 multi-mode microplate reader (Molecular Devices) and data were analyzed by GraphPad Prism 9.2.0.

wild-type Y1R / Gi1 = experiment: BRET Gi1 recruitment assay, wild-type Y1R; format: cell-based, human; details: result in words
Procedure: Forty-eight hours of post-transfection, cells were detached with PBS supplemented with 20 mM EDTA and evenly spread into white 96-well microplates (SPL). […] All BRET data were collected using a Mithras LB940 instrument (Berthold), and graphs were plotted using GraphPad Prism 9.2.0.
each sample represent the mean and S.E.M. (standard error of mean) of n=six independent experiments, respectively. Each circle represents an individual data point from the experiment.

[2] = alanine mutants of NPY, ref [10],[26]

Substance: R33A: R33A mutation of NPY
- Y1R binding (Y1R; [2]): most severe defects in Y1R binding

Substance: R35A: R35A mutation of NPY
- Y1R binding (Y1R; [2]): most severe defects in Y1R binding

Substance: Y36A: Y36A mutation of NPY
- Y1R binding (Y1R; [2]): loss of binding to Y1R

Substance: Gi1 (Sf9): purified Gi1 heterotrimer containing Gαi1 produced from Sf9 insect cells
- reduced luminescence signal (GTP hydrolytic activity) ([1]; GTPase-Glo, 1 μM Gi1, 4 μM NPY-bound Y1R, 3 h, three independent experiments): 95.1%

Substance: Gi (sf9)
- GTP turnover ([1]; 1st, Buffer 7216.3): 2592.3
- GTP turnover ([1]; 2nd, Buffer 7401.3): 2856.7
- GTP turnover ([1]; 3rd, Buffer 7365.4): 2743.4

Substance: NPY-COOH: carboxyl-NPY (NPY-COOH), non-amidated NPY
- Gi1 recruitment (wild-type Y1R / Gi1): does not induce recruitment of Gi1

Substance: Y1R
- GTP turnover ([1]; 1st, Buffer 7216.3): 7542.9
- GTP turnover ([1]; 2nd, Buffer 7401.3): 7352.2
- GTP turnover ([1]; 3rd, Buffer 7365.4): 7960.2

Substance: Y36F: Y36F mutation of NPY
- Y1R binding (Y1R; NPY mutant, ref [26]): relatively mild effect on Y1R binding

Reference: publication PMC8844075 (Nature Communications, 2022)
